Assay results as given in ChEMBL document CHEMBL1133904, “Stereoselective synthesis and antibacterial evaluation of 4-amido-isothiazolidinone oxides” (Bioorg Med Chem Lett, 2001).
Values after ≈ are worked out from the molar mass of the structure shown.

Key:
Klebsiella pneumoniae [1] = test: In vitro antibacterial activity against Klebsiella pneumoniae; range is 62.5->1000; type: functional
[2] = target: T1, Penicillin-binding protein 2 (Staphylococcus aureus, UniProt Q53729); test: Inhibition of Penicillin-binding protein 2 (PBP2) from Staphylococcus aureus
T1 sequence (Q53729 whole entry): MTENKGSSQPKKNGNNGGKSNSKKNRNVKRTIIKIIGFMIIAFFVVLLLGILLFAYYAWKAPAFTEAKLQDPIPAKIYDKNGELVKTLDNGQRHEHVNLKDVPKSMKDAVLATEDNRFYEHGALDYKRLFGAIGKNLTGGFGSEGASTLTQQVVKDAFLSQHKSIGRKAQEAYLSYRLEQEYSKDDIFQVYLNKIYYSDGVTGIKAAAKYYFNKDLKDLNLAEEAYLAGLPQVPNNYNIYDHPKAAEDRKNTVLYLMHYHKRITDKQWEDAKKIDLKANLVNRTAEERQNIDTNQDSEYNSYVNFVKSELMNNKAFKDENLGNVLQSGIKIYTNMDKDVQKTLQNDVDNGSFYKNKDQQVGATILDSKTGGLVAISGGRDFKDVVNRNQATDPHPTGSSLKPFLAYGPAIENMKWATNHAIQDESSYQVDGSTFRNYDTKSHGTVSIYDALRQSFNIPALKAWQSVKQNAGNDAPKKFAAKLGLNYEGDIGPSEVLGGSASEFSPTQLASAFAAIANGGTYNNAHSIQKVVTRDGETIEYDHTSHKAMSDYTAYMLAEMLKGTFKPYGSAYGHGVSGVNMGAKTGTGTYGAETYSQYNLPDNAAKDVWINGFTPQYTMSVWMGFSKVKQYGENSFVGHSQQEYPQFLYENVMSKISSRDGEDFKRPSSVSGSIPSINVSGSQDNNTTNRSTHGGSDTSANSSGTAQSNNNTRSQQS

[3] = target: T2, Penicillin-binding protein 3 (Staphylococcus aureus, UniProt Q5D1F0); test: Inhibition of Penicillin-binding protein 3 (PBP3) from Staphylococcus aureus
T2 sequence (Q5D1F0 whole entry): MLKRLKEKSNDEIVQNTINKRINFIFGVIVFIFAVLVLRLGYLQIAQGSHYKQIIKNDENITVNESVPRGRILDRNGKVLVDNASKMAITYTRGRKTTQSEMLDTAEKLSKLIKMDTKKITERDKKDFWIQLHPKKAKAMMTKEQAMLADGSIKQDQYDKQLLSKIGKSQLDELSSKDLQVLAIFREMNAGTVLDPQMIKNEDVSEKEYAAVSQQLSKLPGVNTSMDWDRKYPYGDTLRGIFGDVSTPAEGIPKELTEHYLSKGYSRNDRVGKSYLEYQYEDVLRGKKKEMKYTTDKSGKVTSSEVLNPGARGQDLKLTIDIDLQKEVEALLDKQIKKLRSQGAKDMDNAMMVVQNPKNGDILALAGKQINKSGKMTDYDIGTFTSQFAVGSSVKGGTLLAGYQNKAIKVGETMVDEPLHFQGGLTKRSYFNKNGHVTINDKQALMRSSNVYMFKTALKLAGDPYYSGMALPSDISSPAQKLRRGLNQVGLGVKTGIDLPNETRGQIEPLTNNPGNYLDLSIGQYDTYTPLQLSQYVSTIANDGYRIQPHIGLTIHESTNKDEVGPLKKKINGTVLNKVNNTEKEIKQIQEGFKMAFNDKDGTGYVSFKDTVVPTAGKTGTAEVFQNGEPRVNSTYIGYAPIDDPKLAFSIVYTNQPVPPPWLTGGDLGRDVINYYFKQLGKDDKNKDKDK

[4] = target: T3, Penicillin-binding protein 1 (Staphylococcus aureus, UniProt Q53725); test: Inhibition of Penicillin-binding protein 1 (PBP1) from Staphylococcus aureus
T3 sequence (Q53725 whole entry): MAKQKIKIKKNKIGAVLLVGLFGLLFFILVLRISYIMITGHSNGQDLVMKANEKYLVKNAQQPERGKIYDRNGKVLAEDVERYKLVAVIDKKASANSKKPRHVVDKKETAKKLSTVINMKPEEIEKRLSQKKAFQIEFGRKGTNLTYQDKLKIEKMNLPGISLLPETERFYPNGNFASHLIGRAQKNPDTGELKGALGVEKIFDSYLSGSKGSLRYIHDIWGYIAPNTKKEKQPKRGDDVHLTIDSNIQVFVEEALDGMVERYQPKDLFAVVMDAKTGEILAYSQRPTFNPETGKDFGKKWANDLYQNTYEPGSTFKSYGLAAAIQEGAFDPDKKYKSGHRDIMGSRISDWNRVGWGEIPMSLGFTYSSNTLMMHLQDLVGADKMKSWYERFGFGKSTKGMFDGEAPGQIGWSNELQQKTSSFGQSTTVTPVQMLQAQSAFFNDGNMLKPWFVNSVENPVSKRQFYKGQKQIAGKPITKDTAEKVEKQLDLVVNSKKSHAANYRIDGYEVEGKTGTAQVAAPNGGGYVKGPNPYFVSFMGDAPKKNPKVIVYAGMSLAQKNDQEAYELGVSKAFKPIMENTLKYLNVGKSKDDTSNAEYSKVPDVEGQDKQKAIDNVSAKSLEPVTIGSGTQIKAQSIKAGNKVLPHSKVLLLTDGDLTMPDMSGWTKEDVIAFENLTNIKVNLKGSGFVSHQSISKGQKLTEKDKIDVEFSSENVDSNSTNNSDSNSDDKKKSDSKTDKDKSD

Staphylococcus aureus [5] = test: In vitro antibacterial activity against Staphylococcus aureus; range is 62.5->1000; type: functional
Streptococcus pneumoniae [6] = test: In vitro antibacterial activity against Streptococcus pneumoniae; range is 62.5->1000; type: functional
[7] = Half life period was measured at pH 7.4 in phosphate buffer; type: ADME
Klebsiella pneumoniae [8] = test: In vitro antibacterial activity against Klebsiella pneumoniae; range is 1.6->100; type: functional
Staphylococcus aureus [9] = test: In vitro antibacterial activity against Staphylococcus aureus; range is 1.6->100; type: functional
Streptococcus pneumoniae [10] = test: In vitro antibacterial activity against Streptococcus pneumoniae; range is 1.6->100; type: functional
Enterobacter cloacae [11] = test: In vitro antibacterial activity against Enterobacter cloacae; type: functional
Klebsiella pneumoniae [12] = test: In vitro antibacterial activity against Klebsiella pneumoniae; type: functional
Moraxella catarrhalis [13] = test: In vitro antibacterial activity against Moraxella catarrhalis; type: functional
Klebsiella pneumoniae [14] = test: In vitro antibacterial activity against Klebsiella pneumoniae; range is 15.6->1000; type: functional
Moraxella catarrhalis [15] = test: In vitro antibacterial activity against Moraxella catarrhalis; range is 15.6->1000; type: functional
Enterobacter cloacae [16] = test: In vitro antibacterial activity against Enterobacter cloacae; range is 15.6->1000; type: functional
Enterobacter cloacae [17] = test: In vitro antibacterial activity against Enterobacter cloacae; range is 31.3->1000; type: functional
Klebsiella pneumoniae [18] = test: In vitro antibacterial activity against Klebsiella pneumoniae; range is 31.3->1000; type: functional
Moraxella catarrhalis [19] = test: In vitro antibacterial activity against Moraxella catarrhalis; range is 31.3->1000; type: functional
Enterobacter cloacae [20] = test: In vitro antibacterial activity against Enterobacter cloacae; range is 125->1000; type: functional
Klebsiella pneumoniae [21] = test: In vitro antibacterial activity against Klebsiella pneumoniae; range is 125->1000; type: functional
Moraxella catarrhalis [22] = test: In vitro antibacterial activity against Moraxella catarrhalis; range is 125->1000; type: functional
Klebsiella pneumoniae [23] = test: In vitro antibacterial activity against Klebsiella pneumoniae; range is 2->32; type: functional
Staphylococcus aureus [24] = test: In vitro antibacterial activity against Staphylococcus aureus; range is 2->32; type: functional
Streptococcus pneumoniae [25] = test: In vitro antibacterial activity against Streptococcus pneumoniae; range is 2->32; type: functional
Enterobacter cloacae [26] = test: In vitro antibacterial activity against Enterobacter cloacae; range is 62.6->1000; type: functional
Klebsiella pneumoniae [27] = test: In vitro antibacterial activity against Klebsiella pneumoniae; range is 62.6->1000; type: functional
Moraxella catarrhalis [28] = test: In vitro antibacterial activity against Moraxella catarrhalis; range is 62.6->1000; type: functional
Enterobacter cloacae [29] = test: In vitro antibacterial activity against Enterobacter cloacae; range is 16->1000; type: functional
Klebsiella pneumoniae [30] = test: In vitro antibacterial activity against Klebsiella pneumoniae; range is 16->1000; type: functional
Moraxella catarrhalis [31] = test: In vitro antibacterial activity against Moraxella catarrhalis; range is 16->1000; type: functional

IC50 [2] [µM] | IC50 [3] [µM] | IC50 [4] [µM] | half-life [7] [h] | MIC (Enterobacter cloacae [11]) [µg/mL] | MIC (Klebsiella pneumoniae [12]) [µg/mL] | MIC (Moraxella catarrhalis [13]) [µg/mL] | SMILES | also measured
> 898 | > 898 | > 898 | > 32 | – | – | – | O=C(O)CN1C[C@H](NC(=O)COc2ccccc2)C1=O | MIC (Klebsiella pneumoniae [1]): 62.5 µg/mL (≈ 225 µM); MIC (Staphylococcus aureus [5]): 62.5 µg/mL (≈ 225 µM); MIC (Streptococcus pneumoniae [6]): 62.5 µg/mL (≈ 225 µM)
> 703 | > 703 | > 703 | – | – | – | – | CCCCNOS(=O)(=O)N1C[C@H](NC(=O)Cc2ccccc2)C1=O | MIC (Klebsiella pneumoniae [8]): 1.6 µg/mL (≈ 4.5 µM); MIC (Staphylococcus aureus [9]): 1.6 µg/mL (≈ 4.5 µM); MIC (Streptococcus pneumoniae [10]): 1.6 µg/mL (≈ 4.5 µM)
> 679 | > 679 | > 679 | < 1.4 | > 1000 | > 1000 | > 1000 | CC(C)[C@@H](C(=O)O)N1C(=O)[C@@H](NC(=O)COc2ccccc2)C[S+]1[O-] (stereo partly specified) | –
> 532 | > 532 | > 532 | < 0.4 | > 64 | > 64 | > 64 | CCCCNOS(=O)(=O)N1C(=O)[C@@H](NC(=O)COc2ccc(Cl)cc2)CS1(=O)=O | –
> 679 | > 679 | > 679 | < 3.3 | > 1000 | > 1000 | > 1000 | CC(C)[C@H](C(=O)O)N1C(=O)[C@@H](NC(=O)COc2ccccc2)C[S+]1[O-] (stereo partly specified) | –
> 552 | > 552 | > 552 | 5.1 | – | – | – | O=C(CN1C(=O)C(NC(=O)Oc2ccc(Cl)cc2)CS1(=O)=O)OCc1ccccc1 (stereo unspecified) | MIC (Klebsiella pneumoniae [14]): 15.6 µg/mL (≈ 34.4 µM); MIC (Moraxella catarrhalis [15]): 15.6 µg/mL (≈ 34.4 µM); MIC (Enterobacter cloacae [16]): 15.6 µg/mL (≈ 34.4 µM)
> 568 | > 568 | > 568 | 15.8 | – | – | – | CC(C)C(C(=O)OC(C)(C)C)N1C(=O)C(NC(=O)OCc2ccccc2)CS1(=O)=O (stereo unspecified) | MIC (Enterobacter cloacae [17]): 31.3 µg/mL (≈ 71.1 µM); MIC (Klebsiella pneumoniae [18]): 31.3 µg/mL (≈ 71.1 µM); MIC (Moraxella catarrhalis [19]): 31.3 µg/mL (≈ 71.1 µM)
> 664 | > 664 | > 664 | 15.7 | – | – | – | CC(C(=O)O)N1C(=O)C(NC(=O)Oc2ccc(Cl)cc2)CS1(=O)=O (stereo unspecified) | MIC (Enterobacter cloacae [20]): 125 µg/mL (≈ 332 µM); MIC (Klebsiella pneumoniae [21]): 125 µg/mL (≈ 332 µM); MIC (Moraxella catarrhalis [22]): 125 µg/mL (≈ 332 µM)
> 780 | > 780 | > 780 | > 48 | – | – | – | CC(C)[C@H](C(=O)O)N1C[C@H](NC(=O)COc2ccccc2)C1=O | MIC (Klebsiella pneumoniae [23]): 2 µg/mL (≈ 6.24 µM); MIC (Staphylococcus aureus [24]): 2 µg/mL (≈ 6.24 µM); MIC (Streptococcus pneumoniae [25]): 2 µg/mL (≈ 6.24 µM)
> 495 | > 495 | > 495 | 5.6 | > 64 | > 64 | > 64 | CO/N=C(/C(=O)NC1CS(=O)(=O)N(CC(=O)O)C1=O)c1csc(N)n1.O=C(O)C(F)(F)F (stereo unspecified) | –
> 545 | > 545 | > 545 | < 0.5 | – | – | – | CC(C)[C@H](C(=O)OCc1ccccc1)N1C(=O)[C@@H](NC(=O)COc2ccccc2)C[S+]1[O-] (stereo partly specified) | MIC (Enterobacter cloacae [26]): 62.6 µg/mL (≈ 137 µM); MIC (Klebsiella pneumoniae [27]): 62.6 µg/mL (≈ 137 µM); MIC (Moraxella catarrhalis [28]): 62.6 µg/mL (≈ 137 µM)
> 578 | > 578 | > 578 | – | – | – | – | CC(C(=O)OC(C)(C)C)N1C(=O)C(NC(=O)Oc2ccc(Cl)cc2)CS1(=O)=O (stereo unspecified) | MIC (Enterobacter cloacae [17]): 31.3 µg/mL (≈ 72.3 µM); MIC (Klebsiella pneumoniae [18]): 31.3 µg/mL (≈ 72.3 µM); MIC (Moraxella catarrhalis [19]): 31.3 µg/mL (≈ 72.3 µM)
> 650 | > 650 | > 650 | 22 | – | – | – | CC(C)[C@@H](C(=O)O)N1C(=O)C(NC(=O)COc2ccccc2)CS1(=O)=O (stereo partly specified) | MIC (Enterobacter cloacae [29]): 16 µg/mL (≈ 41.6 µM); MIC (Klebsiella pneumoniae [30]): 16 µg/mL (≈ 41.6 µM); MIC (Moraxella catarrhalis [31]): 16 µg/mL (≈ 41.6 µM)
> 730 | > 730 | > 730 | 11.9 | > 100 | > 100 | > 100 | O=C(O)CN1C(=O)C(NC(=O)COc2ccccc2)CS1(=O)=O (stereo unspecified) | –
